Biological target: T1, ERα (Homo sapiens, UniProt P03372)
T1 construct: host or cells: MCF7
T1 sequence (P03372 1-595): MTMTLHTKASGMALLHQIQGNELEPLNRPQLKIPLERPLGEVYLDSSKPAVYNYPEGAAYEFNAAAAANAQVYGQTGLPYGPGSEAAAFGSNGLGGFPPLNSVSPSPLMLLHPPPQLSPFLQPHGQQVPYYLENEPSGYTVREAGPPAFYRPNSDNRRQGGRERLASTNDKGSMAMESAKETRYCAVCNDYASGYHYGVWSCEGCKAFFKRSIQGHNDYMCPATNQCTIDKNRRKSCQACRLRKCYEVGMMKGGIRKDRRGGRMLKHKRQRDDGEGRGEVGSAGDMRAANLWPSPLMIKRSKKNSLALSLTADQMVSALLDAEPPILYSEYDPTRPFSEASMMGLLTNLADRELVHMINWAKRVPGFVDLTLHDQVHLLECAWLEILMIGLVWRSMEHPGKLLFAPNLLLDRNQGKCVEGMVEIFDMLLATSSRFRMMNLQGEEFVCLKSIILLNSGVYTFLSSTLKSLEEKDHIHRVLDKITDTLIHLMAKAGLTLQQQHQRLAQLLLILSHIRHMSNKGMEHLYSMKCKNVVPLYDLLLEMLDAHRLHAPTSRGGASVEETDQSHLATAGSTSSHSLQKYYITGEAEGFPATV
Experiment: Estrogen receptor degradation activity: breast cancer cell ERα in cell western assay (MCF7 cells)
Type: cell-based
Conditions: for % Degradation At 0.3 μM: 4 hours, relative to fulvestrant 0.1 μM positive control; for DC50: 4 hours post compound addition, concentration which degrades 50% of the estrogen receptor, read-out: Degradation IC50
Method: Test: Estrogen Receptor Degradation Activity Said test involves measuring the in vitro degradation activity of the compounds of the Table 1a. The measurements of the degradation activities were made using a breast cancer cell ERα in cell western assay as described hereunder. MCF7 cells (ATCC) were seeded in 384 wells microplate (collagen coated) at a concentration of 10000 cells/30 μL per well in red phenol free MEM alpha medium (invitrogen) containing 5% charcoal dextran striped FBS. The following day, 9 points serial 1:5 dilution of each compound was added to the cells in 2.5 μL at final concentrations ranging from […] (in table 2), or 0.1 μM for fulvestrant (using as positive control). At 4 hours post compound addition the cells were fixed by adding 25 μL of formalin (final concentration 5% formalin containing 0.1% triton) for 10 minutes at room temperature and then washed twice with PBS. Then, 50 μL of LI-COR blocking buffer containing 0.1% Triton was added to plate for 30 minutes at room temperature. LI-COR blocking buffer was removed and cells were incubated overnight at cold room with 50 μL anti-ER rabbit monoclonal antibody (Thermo scientific MA1-39540) diluted at 1:1000 in LI-COR blocking buffer containing 0.1% tween-20. Wells which were treated with blocking buffer but no antibody were used as background control. Wells were washed twice with PBS (0.1% tween-20) and incubated at 37° C. for 60 minutes in LI-COR (0.1% tween-20) containing goat anti-rabbit antibody Alexa 488 (1:1000) and Syto-64 a DNA dye (2 μM final concentration). Cells were then washed 3 times in PBS and scanned in ACUMEN explorer (TTP-Labtech). Integrated intensities in the green fluorescence and red fluorescence were measured to determine the levels of ERα and DNA respectively. The degradation activity with respect to estrogen receptors in this test is given by the concentration which degrades 50% of the estrogen receptor (or IC50) in nM. […] DMSO−fulvestrant)).

% Degradation At 0.3 μM [%]	DC50 [nM]	Structure (SMILES)
92	0.8	Cc1cc(C=C2CN(CCCF)C2)cc(F)c1C1=C(c2ccc(F)cc2F)CCCc2cc(C(=O)O)ccc21 [Example 31, 8-(2,4-difluorophenyl)-9-(2-fluoro-4-((1-(3-fluoropropyl)azetidin-3-ylidene)methyl)-6-methylphenyl)-6,7-dihydro-5H-benzo[7]annulene-3-carboxylic acid]
92	0.3	O=C(O)c1ccc2c(c1)CCCC(c1c(F)cc(F)cc1F)=C2c1ccc(C=C2CN(CCCF)C2)cc1 [Example 33, 9-(4-((1-(3-fluoropropyl)azetidin-3-ylidene)methyl)phenyl)-8-(2,4,6-trifluorophenyl)-6,7-dihydro-5H-benzo[7]annulene-3-carboxylic acid]
90	0.3	O=C(O)c1ccc2c(c1)CCCC(c1ccc(C3CC3)cc1F)=C2c1ccc(C=C2CN(CCCF)C2)cc1 [Example 34, 8-(4-cyclopropyl-2-fluorophenyl)-9-(4-((1-(3-fluoropropyl)azetidin-3-ylidene)methyl)phenyl)-6,7-dihydro-5H-benzo[7]annulene-3-carboxylic acid]
93	0.4	O=C(O)c1ccc2c(c1)CCCC(c1ncc(Cl)cc1C(F)(F)F)=C2c1ccc(C=C2CN(CCCF)C2)cc1 [Example 35, 8-(5-chloro-3-(trifluoromethyl)pyridin-2-yl)-9-(4-((1-(3-fluoropropyl)azetidin-3-ylidene)methyl)phenyl)-6,7-dihydro-5H-benzo[7]annulene-3-carboxylic acid]
89	0.4	Cc1cc(F)ccc1C1=C(c2cc(F)c(C=C3CN(CCCF)C3)c(F)c2)c2ccc(C(=O)O)cc2CCC1 [Example 36, 9-(3,5-difluoro-4-((1-(3-fluoropropyl)azetidin-3-ylidene)methyl)phenyl)-8-(4-fluoro-2-methylphenyl)-6,7-dihydro-5H-benzo[7]annulene-3-carboxylic acid]
87	0.4	O=C(O)c1ccc2c(c1)CCCC(c1ccc(Cl)cc1C(F)(F)F)=C2c1ccc(C=C2CN(CCCF)C2)cc1 [Example 37, 8-(4-chloro-2-(trifluoromethyl)phenyl)-9-(4-((1-(3-fluoropropyl)azetidin-3-ylidene)methyl)phenyl)-6,7-dihydro-5H-benzo[7]annulene-3-carboxylic acid]
91	0.2	Cc1ccc(F)cc1C1=C(c2ccc(C=C3CN(CCCF)C3)cc2)c2ccc(C(=O)O)cc2CCC1 [Example 38, 8-(5-fluoro-2-methylphenyl)-9-(4-((1-(3-fluoropropyl)azetidin-3-ylidene)methyl)phenyl)-6,7-dihydro-5H-benzo[7]annulene-3-carboxylic acid]
87	0.2	Cc1cc(C2CC2)ccc1C1=C(c2ccc(C=C3CN(CCCF)C3)cc2)c2ccc(C(=O)O)cc2CCC1 [Example 39, 8-(4-cyclopropyl-2-methylphenyl)-9-(4-((1-(3-fluoropropyl)azetidin-3-ylidene)methyl)phenyl)-6,7-dihydro-5H-benzo[7]annulene-3-carboxylic acid]
87	0.3	O=C(O)c1ccc2c(c1)CCCC(c1ccc(F)cc1C1CC1)=C2c1ccc(C=C2CN(CCCF)C2)cc1 [Example 40, 8-(2-cyclopropyl-4-fluorophenyl)-9-(4-((1-(3-fluoropropyl)azetidin-3-ylidene)methyl)phenyl)-6,7-dihydro-5H-benzo[7]annulene-3-carboxylic acid]
92	0.2	Cc1ccc(C2=C(c3ccc(C=C4CN(CCCF)C4)cc3)c3ccc(C(=O)O)cc3CCC2)c(Cl)c1 [Example 41, 8-(2-chloro-4-methylphenyl)-9-(4-((1-(3-fluoropropyl)azetidin-3-ylidene)methyl)phenyl)-6,7-dihydro-5H-benzo[7]annulene-3-carboxylic acid]
91	0.2	O=C(O)c1ccc2c(c1)CCCC(c1c(F)cccc1Cl)=C2c1ccc(C=C2CN(CCCF)C2)cc1 [Example 42, 8-(2-chloro-6-fluorophenyl)-9-(4-((1-(3-fluoropropyl)azetidin-3-ylidene)methyl)phenyl)-6,7-dihydro-5H-benzo[7]annulene-3-carboxylic acid]
92	0.4	O=C(O)c1ccc2c(c1)CCCC(c1ccc(F)cc1F)=C2c1ccc(C=C2CN(CCCF)C2)c(F)c1F [Example 43, 9-(2,3-difluoro-4-((1-(3-fluoropropyl)azetidin-3-ylidene)methyl)phenyl)-8-(2,4-difluorophenyl)-6,7-dihydro-5H-benzo[7]annulene-3-carboxylic acid]
91	0.4	Cc1cc(C2=C(c3ccc(F)cc3C)CCCc3cc(C(=O)O)ccc32)ccc1C=C1CN(CCCF)C1.Cl [Example 44, 8-(4-fluoro-2-methylphenyl)-9-(4-((1-(3-fluoropropyl)azetidin-3-ylidene)methyl)-3-methylphenyl)-6,7-dihydro-5H-benzo[7]annulene-3-carboxylic acid hydrochloride]
89	0.7	Cc1cc(C2=C(c3ccc(F)cc3C)CCCc3cc(C(=O)O)ccc32)c(C)cc1C=C1CN(CCCF)C1 [Example 45, 8-(4-fluoro-2-methylphenyl)-9-(4-((1-(3-fluoropropyl)azetidin-3-ylidene)methyl)-2,5-dimethylphenyl)-6,7-dihydro-5H-benzo[7]annulene-3-carboxylic acid]
94	6	Cc1cc(F)ccc1C1=C(c2ccc(C=C3CN(CCCF)C3)c(C#N)c2)c2ccc(C(=O)O)cc2CCC1 [Example 46, 9-(3-cyano-4-((1-(3-fluoropropyl)azetidin-3-ylidene)methyl)phenyl)-8-(4-fluoro-2-methylphenyl)-6,7-dihydro-5H-benzo[7]annulene-3-carboxylic acid]
91	0.3	O=C(O)c1ccc2c(c1)CCCC(c1cccc(Cl)c1F)=C2c1ccc(C=C2CN(CCCF)C2)cc1 [Example 47, 8-(3-chloro-2-fluorophenyl)-9-(4-((1-(3-fluoropropyl)azetidin-3-ylidene)methyl)phenyl)-6,7-dihydro-5H-benzo[7]annulene-3-carboxylic acid]
95	0.3	Cc1cccc(C2=C(c3ccc(C=C4CN(CCCF)C4)cc3)c3ccc(C(=O)O)cc3CCC2)c1F [Example 48, 8-(2-fluoro-3-methylphenyl)-9-(4-((1-(3-fluoropropyl)azetidin-3-ylidene)methyl)phenyl)-6,7-dihydro-5H-benzo[7]annulene-3-carboxylic acid]
98	0.3	O=C(O)c1ccc2c(c1)CCCC(c1ccc(C(F)(F)F)cc1F)=C2c1ccc(C=C2CN(CCCF)C2)cc1 [Example 49, 8-(2-fluoro-4-(trifluoromethyl)phenyl)-9-(4-((1-(3-fluoropropyl)azetidin-3-ylidene)methyl)phenyl)-6,7-dihydro-5H-benzo[7]annulene-3-carboxylic acid]
93	0.1	O=C(O)c1ccc2c(c1)CCCC(c1ccc(C(F)(F)F)cc1Cl)=C2c1ccc(C=C2CN(CCCF)C2)cc1 [Example 50, 8-(2-chloro-4-(trifluoromethyl)phenyl)-9-(4-((1-(3-fluoropropyl)azetidin-3-ylidene)methyl)phenyl)-6,7-dihydro-5H-benzo[7]annulene-3-carboxylic acid]
95	0.4	Cc1cc(F)c(C2=C(c3ccc(C=C4CN(CCCF)C4)cc3)c3ccc(C(=O)O)cc3CCC2)c(F)c1 [Example 51, 8-(2,6-difluoro-4-methylphenyl)-9-(4-((1-(3-fluoropropyl)azetidin-3-ylidene)methyl)phenyl)-6,7-dihydro-5H-benzo[7]annulene-3-carboxylic acid]

From patent US12612360B2 (Sanofi, priority 2020, dated 2026)
